Experimental data taken from patent US8912207B2, “2-aldoximino-5-fluoropyrimidine derivatives” (Dow AgroSciences, LLP., priority 2009, dated 2014).
Where two headings read alike, the source gives them in different places.

Key:
[1] = test system: Mycosphaerella graminicola; anamorph: Septoria tritici; Bayer code SEPTTR; assay: Fungicidal activity: leaf blotch of wheat, one-day protectant (1DP) and three-day curative (3DC) tests on wheat plants; format: in vivo, Septoria tritici on wheat plants (variety Yuma); settings: Zymoseptoria tritici, rating of % disease control vs untreated inoculated plants
Procedure: Evaluation of Fungicidal Activity: Leaf Blotch of Wheat (Mycosphaerella graminicola; anamorph: Septoria tritici; Bayer code […]) Wheat plants (variety Yuma) were grown from seed in a greenhouse in 50% mineral soil/50% soil-less Metro mix until the first leaf was fully emerged, with 7-10 seedlings per pot. These plants were inoculated with an aqueous spore suspension of Septoria tritici either prior to or after fungicide treatments. After inoculation the plants were kept in 100% relative humidity (one day in a dark dew chamber followed by two to three days in a lighted dew chamber) to permit spores to germinate and infect the leaf. The plants were then transferred to a greenhouse for disease to develop. The following table presents the activity of typical compounds of the present disclosure when evaluated in these experiments. The effectiveness of the test compounds in controlling disease was determined by assessing the severity of disease on treated plants, then converting the severity to percent control based on the level of disease on untreated, inoculated plants. In each case of Table III the rating scale is as follows: […]

[2] = 24 h, one-day protectant, read-out: SEPTTR 25 ppm 1DP
[3] = 24 h, one-day protectant, read-out: SEPTTR 100 ppm 1DP
[4] = 72 h, three-day curative, read-out: SEPTTR 25 ppm 3DC
[5] = 72 h, three-day curative, read-out: SEPTTR 100 ppm 3DC

| SMILES | pest or weed control at 25 ppm [1, 2] [%] | pest or weed control at 100 ppm [1, 3] [%] | pest or weed control at 25 ppm [1, 4] [%] | pest or weed control at 100 ppm [1, 5] [%] | melting point |
| --- | --- | --- | --- | --- | --- |
| CN(C)/C=N/c1nc(ON=Cc2ccccc2)ncc1F [Compound 1, N′-{5-fluoro-2-[1-phenylmethylideneamino-oxy]pyrimidin-4-yl}-N,N-dimethylformamidine] | 76 to 100 | 76 to 100 | 76 to 100 | 76 to 100 | 240 to 244 °C (dec.) |
| CN(C)/C=N/c1nc(ON=Cc2ccc(Cl)cc2)ncc1F [Compound 2] | 76 to 100 | 76 to 100 | 76 to 100 | 76 to 100 | 230 to 242 °C (dec.) |
| CN(C)/C=N/c1nc(ON=Cc2ccccc2Cl)ncc1F [Compound 3] | 76 to 100 | 76 to 100 | 76 to 100 | 76 to 100 | 186 to 210 °C (dec.) |
| O=CNc1nc(ON=Cc2ccccc2)ncc1F [Compound 4, N-{5-fluoro-2-[1-phenylmethylideneamino-oxy]pyrimidin-4-yl}formamide] | 76 to 100 | 76 to 100 | 76 to 100 | 76 to 100 | – |
| Nc1nc(ON=Cc2ccccc2Cl)ncc1F [Compound 5, 2-chlorobenzaldehyde O-(4-amino-5-fluoropyrimidin-2-yl)oxime] | 76 to 100 | 76 to 100 | 76 to 100 | 76 to 100 | 220 to 230 °C (dec.) |
| Nc1nc(ON=Cc2ccccc2)ncc1F [Compound 6] | 76 to 100 | 76 to 100 | 76 to 100 | 76 to 100 | 151 to 153 °C |
| CC(C)C=NOc1ncc(F)c(N)n1 [Compound 7] | 76 to 100 | 76 to 100 | 76 to 100 | 76 to 100 | 105 to 107 °C |
| Nc1nc(ON=Cc2ccc(Cl)cc2)ncc1F [Compound 8] | 76 to 100 | 76 to 100 | 76 to 100 | 76 to 100 | 200 to 220 °C (dec.) |
| COc1ccccc1C=NOc1ncc(F)c(N)n1 [Compound 9] | 76 to 100 | 76 to 100 | 76 to 100 | 76 to 100 | 240 to 250 °C (dec.) |
| CC=NOc1ncc(F)c(N)n1 [Compound 10] | 76 to 100 | 76 to 100 | 76 to 100 | 76 to 100 | 102 to 105 °C |
| Cc1ccc(C=NOc2ncc(F)c(N)n2)cc1 [Compound 11] | 76 to 100 | 76 to 100 | 76 to 100 | 76 to 100 | 201 to 220 °C (dec.) |
| COc1ccc(C=NOc2ncc(F)c(N)n2)cc1 [Compound 12] | 76 to 100 | 76 to 100 | 76 to 100 | 76 to 100 | 250 to 270 °C (dec.) |
| COc1ccc(C=NOc2ncc(F)c(/N=C/N(C)C)n2)cc1 [Compound 13, N′-{5-Fluoro-2-[1-(4-methoxyphenyl)-methylideneaminooxy]pyrimidin-4-yl}-N,N-dimethylformamidine] | 76 to 100 | 76 to 100 | 76 to 100 | 76 to 100 | 243 to 245 °C (dec.) |
| COc1ccccc1C=NOc1ncc(F)c(/N=C/N(C)C)n1 [Compound 14] | 76 to 100 | 76 to 100 | 76 to 100 | 76 to 100 | 220 to 230 °C (dec.) |
| Cc1ccc(C=NOc2ncc(F)c(/N=C/N(C)C)n2)cc1 [Compound 15] | 76 to 100 | 76 to 100 | 76 to 100 | 76 to 100 | 247 to 253 °C (dec.) |
| CC(C)C=NOc1ncc(F)c(NCc2ccccc2F)n1 [Compound 16, 2-methylpropionaldehyde O-[5-fluoro-4-(2-fluorobenzylamino)pyrimidin-2-yl]oxime] | 0 to 25 | 0 to 25 | 51 to 75 | 76 to 100 | – |
| Fc1ccccc1CNc1nc(ON=Cc2ccccc2)ncc1F [Compound 17] | 76 to 100 | 76 to 100 | 0 to 25 | 0 to 25 | – |
| COc1ccc(C=NOc2ncc(F)c(NCc3ccccc3F)n2)cc1 [Compound 19] | 51 to 75 | 76 to 100 | 0 to 25 | 0 to 25 | – |
| CC=NOc1ncc(F)c(NCc2ccccc2)n1 [Compound 24] | 0 to 25 | 0 to 25 | 0 to 25 | 26 to 50 | – |
| CC(C)C=NOc1ncc(F)c(NCc2ccccc2)n1 [Compound 25] | 0 to 25 | 26 to 50 | 26 to 50 | 76 to 100 | – |
| COc1ccc(CNc2nc(ON=Cc3ccccc3)ncc2F)cc1 [Compound 31] | 26 to 50 | 76 to 100 | 51 to 75 | 76 to 100 | – |
| COc1ccc(CNc2nc(ON=Cc3ccc(Cl)cc3)ncc2F)cc1 [Compound 32] | 0 to 25 | 0 to 25 | 26 to 50 | 76 to 100 | – |
| COc1ccc(C=NOc2ncc(F)c(NCc3ccc(OC)cc3)n2)cc1 [Compound 33] | 51 to 75 | 76 to 100 | 0 to 25 | 51 to 75 | – |
| COc1ccc(CNc2nc(ON=CC(C)C)ncc2F)cc1 [Compound 35] | 0 to 25 | 26 to 50 | 0 to 25 | 76 to 100 | – |
| CN(Cc1ccccc1)c1nc(ON=Cc2ccccc2)ncc1F [Compound 36] | 0 to 25 | 0 to 25 | 26 to 50 | 51 to 75 | – |
| COc1ccc(C=NOc2ncc(F)c(N(C)Cc3ccc(Cl)cc3)n2)cc1 [Compound 43] | 0 to 25 | 0 to 25 | 26 to 50 | 26 to 50 | – |
| CC=NOc1ncc(F)c(N(C)Cc2ccc(Cl)cc2)n1 [Compound 44] | – | – | – | – | 214 to 220 °C (dec.) |
| COc1ccc(CN(C)c2nc(ON=Cc3ccccc3)ncc2F)cc1 [Compound 46] | 0 to 25 | 0 to 25 | 26 to 50 | 76 to 100 | – |
| CC=NOc1ncc(F)c(N(C)Cc2ccc(OC)cc2)n1 [Compound 49] | 0 to 25 | 0 to 25 | 0 to 25 | 26 to 50 | – |
